The target of assay [1] is purified human Factor XIa (Homo sapiens (Human), UniProt P03951). Kind of assay: Factor XIa Assay. The format is biochemical. The settings on record: purified human Factor XIa 40 pM; substrate Z-Gly-Pro-Arg-AFC 100 μM; 50 mM HEPES pH 7.4; read-out: Human FXIa Ki. The method in brief:
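Purified human FXIa at 40 pM final with fluorogenic Z-Gly-Pro-Arg-AFC at 100 μM, in 50 mM HEPES pH 7.4, 150 mM NaCl, 5 mM CaCl2, 0.1% PEG 8000, at rt or 37° C. Initial velocities measured after enzyme–inhibitor equilibration; Ki derived from Vo/Vi versus [I] assuming competitive inhibition.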

The target in assay [2] is purified Human plasma Kallikrein (Homo sapiens (Human), UniProt P03952). Nature of the assay: Kallikrein Assay. It is filed as biochemical. The following applies: purified Human plasma Kallikrein 0.5 nM; substrate Acetyl-K-P-R-AFC; 50 mM HEPES pH 7.4; Ki from IC50 by Cheng Prusoff. The essentials: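 Purified human plasma kallikrein (0.5 nM) with fluorogenic Ac-K-P-R-AFC ([…]) in 50 mM HEPES pH 7.4, 150 mM NaCl, 5 mM CaCl2, 0.1% PEG 8000, at rt or 37 °C. Substrate hydrolysis rate read with and without inhibitor; IC50 from four-parameter logistic fit, converted to Ki by Cheng–Prusoff.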
Chain of purified Human plasma Kallikrein (P03952 391-638): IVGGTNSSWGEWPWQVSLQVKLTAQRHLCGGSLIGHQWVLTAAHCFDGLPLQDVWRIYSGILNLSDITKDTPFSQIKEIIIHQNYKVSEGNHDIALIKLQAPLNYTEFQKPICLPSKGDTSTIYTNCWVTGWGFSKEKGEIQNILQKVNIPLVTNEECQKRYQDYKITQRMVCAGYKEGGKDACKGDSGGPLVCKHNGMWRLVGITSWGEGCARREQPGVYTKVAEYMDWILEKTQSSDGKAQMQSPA
Chain of purified Human plasma Kallikrein (P03952 20-390 partner): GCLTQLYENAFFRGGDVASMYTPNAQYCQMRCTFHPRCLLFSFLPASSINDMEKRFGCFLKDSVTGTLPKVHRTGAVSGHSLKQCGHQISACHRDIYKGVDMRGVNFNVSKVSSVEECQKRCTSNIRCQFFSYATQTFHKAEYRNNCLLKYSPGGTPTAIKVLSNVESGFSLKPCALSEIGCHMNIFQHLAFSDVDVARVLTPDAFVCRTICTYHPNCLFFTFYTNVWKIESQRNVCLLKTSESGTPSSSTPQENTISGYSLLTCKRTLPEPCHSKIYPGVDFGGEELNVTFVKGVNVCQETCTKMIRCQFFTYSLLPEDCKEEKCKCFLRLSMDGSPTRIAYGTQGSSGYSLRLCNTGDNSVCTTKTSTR

Chain of purified human Factor XIa (P03951 388-625): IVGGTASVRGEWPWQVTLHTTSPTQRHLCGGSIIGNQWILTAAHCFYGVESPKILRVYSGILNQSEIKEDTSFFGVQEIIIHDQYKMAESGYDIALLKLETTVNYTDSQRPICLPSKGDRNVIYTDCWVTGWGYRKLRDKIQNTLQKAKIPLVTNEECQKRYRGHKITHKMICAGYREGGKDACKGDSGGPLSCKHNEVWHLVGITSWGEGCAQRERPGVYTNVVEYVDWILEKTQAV
Chain of purified human Factor XIa (P03951 19-387 partner): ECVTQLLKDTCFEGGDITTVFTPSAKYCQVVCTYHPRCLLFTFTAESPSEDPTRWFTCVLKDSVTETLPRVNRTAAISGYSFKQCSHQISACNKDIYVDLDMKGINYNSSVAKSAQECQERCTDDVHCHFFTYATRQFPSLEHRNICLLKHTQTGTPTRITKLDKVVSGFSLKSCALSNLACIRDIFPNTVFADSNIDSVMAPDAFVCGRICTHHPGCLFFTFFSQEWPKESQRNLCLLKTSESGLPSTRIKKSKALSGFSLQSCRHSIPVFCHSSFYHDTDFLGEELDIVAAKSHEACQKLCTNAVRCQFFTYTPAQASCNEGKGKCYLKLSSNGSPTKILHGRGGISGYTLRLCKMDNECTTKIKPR

`COC(=O)Nc1ccc2c(c1)NC(=O)CCCCC(c1ccc(-c3c(F)cc(I)c(Cl)c3F)c[n+]1[O-])c1nc-2c[nH]1` (single isomer, unassigned) [Example 103-a, (Z)-5-(3-Chloro-2,6-difluoro-4-iodophenyl)-2-(2^4-((methoxycarbonyl)amino)-4-oxo-1^1H-3-aza-1(4,2)-imidazola-2(1,2) -benzenacyclononaphane-9-yl)pyridine 1-oxide]: the Ki was found to be 1.7 nM in assay [1] and 137 nM in assay [2].
For `O=C1CCCCC(c2ccc(-c3cc(Cl)ccc3-n3cnnn3)c[n+]2[O-])c2c[nH]c(n2)-c2cc(F)ccc2N1` (racemic) [Example 160, (Z)-5-(5-chloro-2-(1H-tetrazol-1-yl)phenyl)-2-(2^5-fluoro-4-oxo-1^1H-3-aza-1(2,4)-imidazola-2(1,2)-benzenacyclononaphane-9-yl)pyridine 1-oxide], in that order: 0.47 nM and 4 nM.
For `COC(=O)Nc1ccc2c(c1)NC(=O)CCCC[C@H](c1ccc(-c3cc(Cl)ccc3-n3cc(C(F)(F)F)cn3)c[n+]1[O-])c1cccc-2c1` (single isomer, unassigned) [Example 40], in that order: 0.46 nM and 13.7 nM.
For `COC(=O)Nc1ccc2c(c1)NC(=O)C(C)CCCC(c1ccc(-c3c(F)ccc(Cl)c3F)c[n+]1[O-])c1cccc-2c1` (single isomer, unassigned) [Example 50-b, 5-(3-chloro-2,6-difluorophenyl)-2-(2^4-((methoxycarbonyl)amino)-5-methyl-4-oxo-3-aza-1(1,3),2(1,2)-dinenzenacyclononaphane-9-yl)pyridine 1-oxide], in that order: 3.5 nM and 10.6 nM.
Consider `O=C1CCCCC(c2ccc(-c3c(F)ccc(Cl)c3F)c[n+]2[O-])c2nc(c[nH]2)-c2cc(F)ccc2N1` (single isomer, unassigned) [Example 104-a], for which the Ki in assay [1] was determined as 10.8 nM; in assay [2], 26.3 nM.
As to `O=C1CCCCC(c2ccc(-c3cc(F)ccc3-n3cc(Cl)nn3)c[n+]2[O-])c2cccc(c2)-c2cc(F)ccc2N1` (single isomer, unassigned) [Example 90-a, 5-(2-(4-Chloro-1H-1,2,3-triazol-1-yl)-5-fluorophenyl)-2-(2^5-fluoro-4-oxo-3-aza-1(1,3),2(1,2)-dinenzenacyclononaphane-9-yl)pyridine 1-oxide], the Ki in assay [1] is 3.2 nM; in assay [2] it was 121 nM.
For `O=C(C1CCCCC(c2ccc(-c3cc(Cl)ccc3-n3cnnn3)c[n+]2[O-])c2cccc(c2)-c2cc(F)ccc2N1)N1CCCC1` (single isomer, unassigned) [Example 79-d, 5-(5-Chloro-2-(1H-tetrazol-1-yl)phenyl)-2-(2^5-fluoro-4-(pyrrolidine-1-carbonyl)-3-aza-1(1,3),2(1,2)-dibenzenacyclononaphane-9-yl)pyridine 1-oxide], the Ki was 30.3 nM in assay [1] and 2170 nM in assay [2].
On the same counts, the results for `COC(=O)Nc1ccc2c(c1)NC(=O)CCCC[C@H](c1ccc(-c3cc(Cl)ccc3-c3cnn(C(F)F)c3)c[n+]1[O-])c1cccc-2c1` (single isomer, unassigned) [Example 42] are 0.44 nM and 3.1 nM.
Take `CC1CCCC(c2ccc(-c3cc(Cl)ccc3-n3cnnn3)c[n+]2[O-])c2cccc(c2)-c2ccc(C#N)cc2NC1=O` (centres unmarked) [Example 84, 5-(5-chloro-2-(1H-tetrazol-1-yl)phenyl)-2-(2^4-cyano-5-Methyl-4-OXO-3-aza-1(1,3), 2(1,2)-dinenzenacyclononaphane-9-yl)pyridine 1-oxide]: the inhibition constant (Ki) in assay [1] stood at 0.38 nM; in assay [2], 1.85 nM.
With `COC(=O)Nc1cc(F)c2c(c1)NC(=O)C(C)CCCC(c1ccc(-c3c(F)ccc(Cl)c3F)c[n+]1[O-])c1cccc-2c1` (single isomer, unassigned) [Example 85-b, 5-(3-Chloro-2,6-difluorophenyl)-2-(2^6-fluoro-2^4-((methoxycarbonyl)amino)-5-methyl-4-oxo-3-aza-1(1,3),2(1,2)-dibenzenacyclononaphane-9-yl)pyridine 1-oxide], the results for the inhibitory constant (Ki) in assay [1] and in assay [2] were 6 nM and 15.2 nM, respectively.
For `O=C1CCCC[C@H](c2ccc(-c3cc(Cl)ccc3-c3cnco3)c[n+]2[O-])c2nc(c[nH]2)-c2cc(F)ccc2N1` (single isomer, unassigned) [Example 118], in that order: 5.69 nM and 37.5 nM.
On to `COC(=O)Nc1ccc2c(c1)NC(=O)CCCC[C@H](c1ccc(-c3cc(F)ccc3OC(F)F)c[n+]1[O-])c1nc-2c(C)[nH]1` (single isomer, unassigned) [Example 129], for which the values for the inhibitory constant (Ki) in assay [1] and in assay [2] were 0.12 nM and 1.72 nM, respectively.
Consider `C[C@H]1CCC[C@@H](c2ccc(-c3cc(Cl)ccc3-n3cnnn3)c[n+]2[O-])c2cccc(c2)-c2cc(F)ccc2NC1=O` [Example 3-c, 5-(5-Chloro-2-(1H-tetrazol-1-yl)phenyl)-2-((5S,9R)-2^5-fluoro-5-methyl-4-oxo-3-aza-1(1,3),2(1,2)-dibenzenacyclononaphane-9-yl)pyridine 1-oxide], for which the figures for the inhibition constant Ki in assay [1] and in assay [2] were 26.3 nM and 660 nM, respectively.

For orientation: Ki means a measure of affinity in units of concentration, obtained from inhibition or displacement.
